{"source": "patent US20250288590A1", "about": "“DRUG SUSTAINED-RELEASE TABLET FOR TREATING LIVER DISEASE, PREPARATION METHOD THEREFOR AND USE THEREOF” (CHANGCHUN INTELLICROWN PHARMACEUTICAL CO., LTD., priority 2022, published 2025)", "key": {"[1]": {"test": "rat pharmacokinetic studies, oral administration", "format": "in vivo", "conditions": "rats"}, "[2]": {"test": "pharmacokinetics in Beagle dogs, oral administration of the compound", "format": "in vivo"}, "[3]": {"test": "solubility, pH dependence", "format": "physicochemical", "conditions": "mesylate; increasing pH"}}}
{"smiles": "COC(=O)c1cc(OC)c2c(c1-c1c(CN3CCOCC3)cc(OC)c3c1OCO3)OCO2", "note": "[IMM-H014, methyl 7,7′-dimethoxy-5′-(morpholinomethyl)-[4,4′-bibenzo[d][1,3]dioxole]-5-carboxylate]", "values": [{"measurement": "bioavailability", "setting": "[1]; rat, blood, oral", "value": 96.3, "unit": "%"}, {"measurement": "half-life", "setting": "[1]; rat, blood, oral administration, read-out: elimination half-life (converted)", "value": "~1.8", "unit": "h"}, {"measurement": "peak blood concentration (time)", "setting": "[1]; oral administration", "value": 0.5, "unit": "h"}, {"measurement": "half-life", "setting": "[2]; dog, blood, Beagle dogs, read-out: elimination half-life (converted)", "value": "~3.5", "unit": "h"}, {"measurement": "time to peak blood concentration (Tmax)", "setting": "[2]; dogs", "value": 0.5, "unit": "h"}, {"measurement": "solubility (pH-dependent)", "setting": "[3]", "value": "as the pH increases, the solubility gradually decreases"}]}
